Results on three molecules are retold here after US20260176320A1, “MODULATORS OF G-PROTEIN COUPLED RECEPTORS” (priority 2018, published 2026).

In one series the target is T1, GIP-R (Homo sapiens, UniProt P48546).
T1 sequence (P48546 22-466): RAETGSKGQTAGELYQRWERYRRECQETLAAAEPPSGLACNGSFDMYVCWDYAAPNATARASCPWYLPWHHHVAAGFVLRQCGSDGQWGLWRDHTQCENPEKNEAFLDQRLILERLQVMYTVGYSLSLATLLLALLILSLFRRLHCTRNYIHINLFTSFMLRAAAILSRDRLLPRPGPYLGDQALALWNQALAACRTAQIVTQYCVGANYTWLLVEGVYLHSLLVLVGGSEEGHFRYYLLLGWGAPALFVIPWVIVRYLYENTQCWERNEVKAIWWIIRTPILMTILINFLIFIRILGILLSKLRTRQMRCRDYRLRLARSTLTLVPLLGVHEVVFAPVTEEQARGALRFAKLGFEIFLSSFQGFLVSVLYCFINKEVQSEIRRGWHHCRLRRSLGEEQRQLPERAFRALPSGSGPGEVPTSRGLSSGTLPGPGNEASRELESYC
Briefly: HitHunter cAMP assay (GIP-R). The series is classed as cell-based. The method, boiled down: (§1)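 Suspension cells (10,000/well) in HBSS with 10 mM HEPES, 625 μM IBMX, 0.2% BSA exposed to 22-point 2-fold agonist series in duplicate for 30 min at room temperature. cAMP measured by antibody immunocompetition with overnight development, luminescence read-out.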

Series [1] deals with T2, GLP-1R (Homo sapiens, UniProt P43220). Nature of the series: PathHunter β-arrestin assay. Type of series: cell-based. The method, boiled down: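 Cells (5,000/well) plated overnight, then exposed to a 22-point 2-fold agonist dilution series in medium with 0.2% BSA for 90 min at 37 °C, 5% CO2. PathHunter detection reagent added; after 3 h at room temperature in the dark, luminescence read.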
T2 sequence (P43220 24-463): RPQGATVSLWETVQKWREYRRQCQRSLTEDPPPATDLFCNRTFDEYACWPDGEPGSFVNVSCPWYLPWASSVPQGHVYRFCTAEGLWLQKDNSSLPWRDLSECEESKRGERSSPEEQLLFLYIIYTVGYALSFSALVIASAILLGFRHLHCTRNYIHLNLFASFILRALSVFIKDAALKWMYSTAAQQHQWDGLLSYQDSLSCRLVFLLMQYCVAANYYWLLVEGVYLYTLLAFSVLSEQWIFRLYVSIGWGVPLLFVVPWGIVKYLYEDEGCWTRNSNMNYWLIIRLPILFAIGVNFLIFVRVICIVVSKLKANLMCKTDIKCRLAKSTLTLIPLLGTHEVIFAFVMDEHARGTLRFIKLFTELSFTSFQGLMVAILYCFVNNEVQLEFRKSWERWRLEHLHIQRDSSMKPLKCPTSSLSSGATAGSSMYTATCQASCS

In series [2] the target is T2, GLP-1R. Nature of the series: HitHunter cAMP assay (GLP-1R). The series is classed as cell-based. The method, boiled down: as §1
For series [3], the system named is mice. Briefly: Glucose tolerance test (GTT). The series is classed as in vivo, mouse. The settings on record: 24 h GTT, s.c., dose range 2-5 nmol/kg, percent of vehicle. The method, boiled down:
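Compounds diluted in PBS from 1 mM DMSO stocks and given subcutaneously 15 min (5-6 h fast), 4 h (16 h overnight fast), 16 h or 24 h before intraperitoneal glucose (2 g/kg). Tail blood glucose read at 10–120 min post-glucose, at least 6 mice per time-point. Glucose AUC over time determined.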

In series [4] the test system is mice. Briefly: Conditioned taste aversion (CTA) in mice. The series is classed as in vivo, mouse. The settings on record: s.c., 30 nmol/kg, saccharine preference vs vehicle. As to the method:
A value of CTA=0.0-0.6 indicates significant aversion to a compound. The conditioned taste aversion assay measures the preference for a dilute saccharin solution that is associated with compound administration.
One week before start of experiment (Day-7), animals were transferred to single house double grommet cages. A 50 ml water bottle was placed, and consistently replaced when refilled in the same grommet to habituate the animal to a “water” side. After 7 days of baseline water consumption, animals began the taste preference procedure. On Day 1, the animals were weighed and deprived of water at […]. On acquisition day (Day 2), mice had access to a single bottle containing 0.15% saccharin solution, on the opposite side to the “water” habituated side and allowed to consume for 3 h, from 6 pm until 9 pm. The saccharine bottles were then removed and weighed to record the 3 h consumption. […] On Day 3, the water was removed and weighed at 6 pm. On Day 4, both saccharine and water bottles were weighed and returned simultaneously to respective grommet at 6 pm. On Day 5, the bottles were removed at 6 pm and weighed. Saccharine consumption was measured as a percent of the total amount of fluid consumed. The reduction of saccharin consumption during the retrieval was used as a measure of CTA strength. Liraglutide and semaglutide were used as positive controls.

The test system of series [5] is mice. The note with it: general statement; cited from earlier work.
Series [6] addresses T2, GLP-1R. The note with it: general statement; cited from earlier work.

pEC50: −log10 of the molar value. Bounds are passed on as bounds.

In turn, `CCCCCCCCCCCCCCCC(=O)N[C@@H](CCC(=O)NCCCC[C@H](NC(=O)[C@H](CO)NC(=O)[C@@H]1CCCN1C(=O)[C@@H]1CCCN1C(=O)[C@@H]1CCCN1C(=O)[C@H](C)NC(=O)CNC(=O)[C@H](CO)NC(=O)[C@H](CO)NC(=O)[C@@H]1CCCN1C(=O)CNC(=O)CNC(=O)[C@H](C)NC(=O)[C@H](CC(C)C)NC(=O)[C@H](CC(C)C)NC(=O)[C@H](Cc1c[nH]c2ccccc12)NC(=O)[C@H](CC(N)=O)NC(=O)[C@@H](NC(=O)[C@H](Cc1ccccc1)NC(=O)[C@H](CCC(=O)O)NC(=O)C(C)(C)NC(=O)[C@H](C)NC(=O)[C@H](C)NC(=O)[C@H](CCC(N)=O)NC(=O)[C@H](CCCCN)NC(=O)[C@H](CC(=O)O)NC(=O)[C@H](CC(C)C)NC(=O)[C@H](Cc1ccc(O)cc1)NC(=O)[C@@H](NC(=O)[C@H](CO)NC(=O)[C@H](Cc1ccc(O)cc1)NC(=O)[C@H](CC(=O)O)NC(=O)[C@H](CO)NC(=O)[C@@H](NC(=O)[C@H](Cc1ccccc1)NC(=O)[C@@H](NC(=O)CNC(=O)[C@H](CCC(=O)O)NC(=O)CCNC(=O)CN1CCCC1=O)[C@@H](C)O)[C@@H](C)O)[C@@H](C)CC)C(C)C)C(N)=O)C(=O)O` [Compound 264] showed a concentration for a half-maximal effect (EC50) at GIP-R (EC50 GIP-R/nM, Table 3A, cAMP) of 1 to 10 nM. Besides, the Emax is 90% at GIP-R (read-out: (Emax) GIP-R) and 100% at GLP-1R [2] (read-out: (Emax) GLP-1R). Moreover, the pEC50 is over 8.00 on GLP-1R [1] and over 10.00 at GLP-1R [2]. The AUC score in the series with mice [3] is reported as 3 (AUC score 3 = 51-75%). Further, in the series on mice [4], the CTA score was 1 (Score 1 = 0-25%).

Turning to `CCCCCCCCCCCCCCCC(=O)N[C@@H](CCC(=O)NCCCC[C@H](NC(=O)[C@H](C)NC(=O)[C@H](C)NC(=O)[C@H](CCC(N)=O)NC(=O)CNC(=O)[C@H](CCC(=O)O)NC(=O)[C@H](CC(C)C)NC(=O)[C@H](Cc1ccc(O)cc1)NC(=O)[C@H](CO)NC(=O)[C@H](CO)NC(=O)[C@@H](NC(=O)[C@H](CC(=O)O)NC(=O)[C@H](CO)NC(=O)[C@@H](NC(=O)[C@H](Cc1ccccc1)NC(=O)[C@@H](NC(=O)CNC(=O)[C@H](CCC(=O)O)NC(=O)[C@H](C)NC(=O)[C@@H](N)Cc1cnc[nH]1)[C@@H](C)O)[C@@H](C)O)C(C)C)C(=O)N[C@@H](CCC(=O)O)C(=O)N[C@@H](Cc1ccccc1)C(=O)N[C@H](C(=O)N[C@@H](C)C(=O)N[C@@H](Cc1c[nH]c2ccccc12)C(=O)N[C@@H](CC(C)C)C(=O)N[C@H](C(=O)N[C@@H](CCCNC(=N)N)C(=O)NCC(=O)N[C@@H](CCCNC(=N)N)C(=O)NCC(=O)O)C(C)C)[C@@H](C)CC)C(=O)O` [Liraglutide, liraglutide], the “signal in conditioned taste aversion models” value with mice [5] is recorded as “strong signal in conditioned taste aversion models”.

glucagon-like peptide-1 [GLP-1]: the β-arrestin recruitment result on GLP-1R [6] is “potent recruiters of β-arrestin”.
